These results are taken from ChEMBL document CHEMBL3392985, “Dithiocarbamate-thiourea hybrids useful as vaginal microbicides also show reverse transcriptase inhibition: design, synthesis, docking and pharmacokinetic studies” (Bioorg Med Chem Lett, 2015).

Data set [1] deals with Trichomonas vaginalis. Nature of the data set: Antimicrobial activity against Trichomonas vaginalis after 3 to 48 hrs by trypan blue exclusion assay. Format: functional.
Data set [2] can be described thus: Spermicidal activity against human sperm by microscopic analysis. Format: functional.
Data set [3] concerns the target Human immunodeficiency virus type 1 reverse transcriptase (Human immunodeficiency virus 1) (UniProt Q72547). The data set can be described thus: Inhibition of HIV-1 reverse transcriptase using digoxigenin/biotin-labeled dUTP as substrate at 100 ug/ml incubated for 1 hr followed by compound washout measured after 1 hr by non-radioactive ELISA relative to control.
Data set [4] deals with HeLa. The data set can be described thus: Cytotoxicity against human HeLa cells assessed as cell viability at 200 ug/ml after 24 hrs by lactate dehydrogenase release assay. Format: cell-based.
The nature of data set [5]: Toxicity against Lactobacillus acidophilus at 200 ug/ml after 24 hrs.
The nature of data set [6]: Cmax in rabbit administered administered intravaginally after 1 hr. Format: ADME, organism-based, Oryctolagus cuniculus. The settings on record: in vivo.
Data set [7] is described as follows: Terminal half life in rabbit administered intravaginally after 1 hr. Format: ADME, organism-based, Oryctolagus cuniculus. The conditions noted are these: in vivo, read-out: beta t1/2 (converted).
For data set [8], the species on record is Homo sapiens. The data set can be described thus: Ratio of nonoxynol-9 MEC to compound MEC for human sperm. Format: functional.
Data set [9] can be described thus: Stability of the compound in simulated vaginal fluid at 100 ng/ml at pH 2 up to 1 hr by LC/MS/MS analysis. Format: ADME. The settings on record: buffer, pH 2, 1 h.

What is called MIC is the least concentration at which growth counts as inhibited. High values mean weaker potency, low ones greater potency. The inhibition is the share of the control response that was lost under treatment. Usually Cmax stands for the peak of the concentration-time curve.

≈ marks a conversion by molar mass, not a printed value. Some results are limits rather than exact numbers.

For the compound `CCCSC(=S)N1CCN(C(=S)Nc2ccccc2)CC1`, the MIC in data set [1] amounted to 500 µg/mL (≈ 1470 µM). Moreover, the MEC in [2] was over 2%. In addition, the inhibition in data set [3] was found to be 21.5%.

For the compound `CCCCCCCCSC(=S)N1CCN(C(=S)NCCc2ccccc2)CC1`, the MIC in data set [1] was 250 µg/mL (≈ 571 µM). This compound displayed an MEC in [2] of over 2%. Moreover, in data set [3], the inhibition came to 15.7%.

`O=C(NC(=S)N1CCN(C(=S)SCc2ccccc2)CC1)c1ccccc1` showed a minimum inhibitory concentration (MIC) in data set [1] of 62.5 µg/mL (≈ 150 µM). The MEC in data set [2] came out at 1%. Besides, in [3], the inhibition is 12.3%.

For `CCCCCCSC(=S)N1CCN(C(=S)NCc2ccccc2)CC1`, the MIC in data set [1] was 250 µg/mL (≈ 632 µM). Moreover, in data set [2], the MEC is over 2%. In data set [3], the inhibition was 27.3%.

Regarding `S=C(NCc1ccccc1)N1CCN(C(=S)SCc2ccccc2)CC1`, the MIC in [1] was 125 µg/mL (≈ 311 µM). The compound also returned an MEC in [2] of over 2%. In addition, the inhibition in data set [3] stood at 9.11%.

Take `CCCCCCSC(=S)N1CCN(C(=S)Nc2cccnc2)CC1`: 125 µg/mL (≈ 327 µM) was the least that counted as inhibitory in data set [1] (MIC). Further, the MEC in data set [2] was 0.05%. In data set [3], the inhibition amounted to 26.1%. Also, the Activity entry in data set [4] and in data set [5] was “Non-toxic” in each case.

In turn, `S=C(NCCc1ccccc1)N1CCN(C(=S)SCc2ccccc2)CC1` had an MIC in data set [1] of 62.5 µg/mL (≈ 150 µM). In data set [2], this compound showed an MEC of over 2%. Also, the inhibition in data set [3] is 11.8%.

In data set [1], `CCCCCCSC(=S)N1CCN(C(=S)Nc2ccccc2)CC1` yielded an MIC of over 500 µg/mL. The MEC in data set [2] is given as over 2%. The inhibition in data set [3] was found to be 1.9%.

`CCCCCCCCCc1ccc(OCCOCCOCCOCCOCCOCCOCCOCCOCCO)cc1` [NONOXYNOL 9]: the minimum inhibitory concentration (MIC) in data set [1] was 20 µg/mL (≈ 32.4 µM). Moreover, the MEC in [2] is 0.05%. Further, the maximum concentration (Cmax) in data set [6] is 4.87 ng/mL. Also, the half-life in [7] is 1.45 h.

With `S=C(Nc1cccnc1)N1CCN(C(=S)SCc2ccccc2)CC1`, in data set [1], the MIC was over 500 µg/mL. The compound further gave an MEC in data set [2] of 2%. Also, in data set [3], the inhibition amounted to 25.8%.

The compound `CCCCSC(=S)N1CCN(C(=S)NCCc2ccccc2)CC1` returned an MIC in [1] of 250 µg/mL (≈ 655 µM). Also, the MEC in data set [2] was over 2%. In data set [3], the inhibition worked out at 13.5%.

`CCCCSC(=S)N1CCN(C(=S)NC(=O)c2ccccc2)CC1`: the MIC in [1] was determined as 125 µg/mL (≈ 328 µM). In data set [2], this compound gave an MEC of 1%. Also, in data set [3], the inhibition was found to be 27.8%.

With `CCCCSC(=S)N1CCN(C(=S)Nc2ccccc2)CC1`, 125 µg/mL (≈ 354 µM) was the least that counted as inhibitory in data set [1] (MIC). In data set [2], this compound gave an MEC of over 2%. For the same compound, in data set [3], the inhibition was found to be 30.9%.

As for `CCCSC(=S)N1CCN(C(=S)NCc2ccccc2)CC1`, 15.6 µg/mL (≈ 44 µM) was the least that counted as inhibitory in data set [1] (MIC). Further, the MEC in data set [2] was determined as 1%. The inhibition in data set [3] is 20.6%.

As for `CCCCCCSC(=S)N1CCN(C(=S)NC(=O)c2ccccc2)CC1`, the MIC in data set [1] was found to be 7.78 µg/mL (≈ 19 µM). This compound gave an MEC in data set [2] of 0.05%. Besides, the inhibition in data set [3] was 23.2%. Besides, the Activity result in data set [4] and in data set [5] was “Non-toxic” in each case.

In [1], `CCCCCCSC(=S)N1CCN(C(=S)NCCc2ccccc2)CC1` returned an MIC of 250 µg/mL (≈ 610 µM). For the same compound, the MEC in [2] is 1%. Further, the inhibition in [3] came out at 14.8%.

`CCCCCCCCSC(=S)N1CCN(C(=S)NC(=O)c2ccccc2)CC1` gave an MIC in [1] of 15.6 µg/mL (≈ 35.5 µM). In data set [2], this compound returned an MEC of 0.025%. Moreover, the inhibition in [3] worked out at 41.3%. The Ratio in data set [8] came out at 2. For the same compound, the Activity entry in [4] and in data set [5] was “Non-toxic” throughout. Also, the Stability entry in data set [9] is on record as “Stable”.

In turn, `CCCSC(=S)N1CCN(C(=S)Nc2cccnc2)CC1` gave an MIC in data set [1] of 125 µg/mL (≈ 367 µM). The MEC in data set [2] came to 0.5%. In data set [3], the inhibition was 35.4%.

Compound `CCCCCCCCSC(=S)N1CCN(C(=S)Nc2ccccc2)CC1` had an MIC in data set [1] of 125 µg/mL (≈ 305 µM). The compound also came in with an MEC in data set [2] of 1%. The inhibition in data set [3] was 24%.

The compound `CCCCCCCCSC(=S)N1CCN(C(=S)Nc2cccnc2)CC1` came in with an MIC in [1] of 62.5 µg/mL (≈ 152 µM). This compound also showed an MEC in data set [2] of 2%. For the same compound, the inhibition in [3] was determined as 44.7%.

On to `CCCSC(=S)N1CCN(C(=S)NC(=O)c2ccccc2)CC1`, for which 62.5 µg/mL (≈ 170 µM) was the least that counted as inhibitory in data set [1] (MIC). In addition, the MEC in data set [2] came to 0.025%. Further, the inhibition in data set [3] was 31.4%. Also, the Ratio in [8] amounted to 2. For the same compound, the Activity entry in data set [4] and in data set [5] was “Non-toxic” in each case.

Consider `CCCSC(=S)N1CCN(C(=S)NCCc2ccccc2)CC1`, for which the MIC in data set [1] came out at 250 µg/mL (≈ 680 µM). In data set [2], this compound had an MEC of over 2%. Besides, the inhibition in data set [3] came out at 28.4%.

Regarding `CCCCSC(=S)N1CCN(C(=S)Nc2cccnc2)CC1`, the MIC in [1] was determined as 250 µg/mL (≈ 705 µM). This compound came in with an MEC in data set [2] of over 2%. Moreover, the inhibition in [3] was determined as 14.9%.

Take `S=C(Nc1ccccc1)N1CCN(C(=S)SCc2ccccc2)CC1`: in data set [1], the MIC was 250 µg/mL (≈ 645 µM). Moreover, the MEC in data set [2] is reported as over 2%. The inhibition in data set [3] is 21.9%.

Consider `CCCCCCCCSC(=S)N1CCN(C(=S)NCc2ccccc2)CC1`, for which the MIC in data set [1] is 250 µg/mL (≈ 590 µM). The compound further displayed an MEC in data set [2] of 1%. The inhibition in data set [3] worked out at 36.5%.

On to `CCCCSC(=S)N1CCN(C(=S)NCc2ccccc2)CC1`, for which the MIC in data set [1] amounted to 500 µg/mL (≈ 1360 µM). This compound also displayed an MEC in data set [2] of over 2%. In data set [3], the inhibition stood at 14.2%.
